# Results from patent US6737383B1, “Herbicidal oxadiazolidines” (priority 1999, dated 2004).
# Legend:
# [1] = tested on: corn; experiment: Test B pre/postemergence corn; assay type: in vivo, Zea mays
# In short: (§1)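 Response is a visual 0-to-10 score relative to untreated plants, where 0 means no effect and 10 means complete control, taken twelve to sixteen days after application. Treatments went onto soil at planting and onto foliage of 1- to 4-leaf plants, using a surfactant-containing non-phytotoxic solvent.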
# [2] = tested on: rape; experiment: Test B pre/postemergence rape; assay type: in vivo, Brassica napus
# In short: as §1
# [3] = tested on: sugar beet; experiment: Test B pre/postemergence sugar beet; assay type: in vivo, Beta vulgaris; settings: for Plant response rating, Sugarbeets: Rate 250 g/ha
# In short: as §1
# [4] = tested on: duck salad; experiment: Test B flood test duck salad; assay type: in vivo, Heteranthera limosa
# In short: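 Flood test on plants grown to the 2-leaf stage; treated plants kept in greenhouse twelve to sixteen days, then visually rated against controls on a 0 (no effect) to 10 (complete control) scale.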
# [5] = tested on: pitted morningglory; experiment: Test D pitted morningglory; assay type: in vivo, Ipomoea lacunosa; settings: Preemergence, 0 to 100 scale
# In short: (§2)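 Herbicide screen in the greenhouse. A non-phytotoxic solvent mixture with surfactant carried the test chemical; in pre-emergence tests it went onto the soil of pots seeded no more than a day earlier. Injury was scored by eye 14 to 21 days after application, 0 to 100.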
# [6] = tested on: tall mallow; experiment: Test D tall mallow; assay type: in vivo, Malva sylvestris; settings: Preemergence, 0 to 100 scale
# In short: as §2
# [7] = tested on: winter wheat; experiment: Test E winter wheat; assay type: in vivo, Triticum aestivum; settings: Postemergence
# In short: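 Each compound, carried in a non-phytotoxic solvent blend including surfactant, was applied (postemergence: over the top of young plants at 1- to 4-leaf stage). Plants stayed in the greenhouse about 21 to 28 days before visual comparison with untreated controls.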
# [8] = tested on: blackgrass; experiment: Test E blackgrass; assay type: in vivo, Alopecurus myosuroides; settings: Preemergence
# [9] = tested on: green foxtail; experiment: Test E green foxtail; assay type: in vivo, Setaria viridis; settings: Preemergence
# [10] = tested on: Italian ryegrass; experiment: Test E Italian ryegrass; assay type: in vivo, Lolium multiflorum; settings: Preemergence
# [11] = tested on: winter wheat; experiment: Test E winter wheat; assay type: in vivo, Triticum aestivum; settings: Preemergence
# [12] = tested on: wild oat; experiment: Test E wild oat; assay type: in vivo, Avena fatua; settings: Preemergence, 0 to 100 scale where 0 is no effect and 100 is complete control
# [13] = tested on: winter barley; experiment: Test E winter barley; assay type: in vivo, Hordeum vulgare; settings: Preemergence
# [14] = Postemergence, Rate 62 g/ha, scale 0 to 10, 0 is no effect, 10 is complete control
# [15] = Postemergence, Rate 125 g/ha, scale of 0 to 10 where 0 is no effect and 10 is complete control
# [16] = Postemergence, Rate 250 g/ha, scale 0 to 10, 0 no effect, 10 complete control
# [17] = Preemergence, Rate 62 g/ha, scale 0 to 10 (0 no effect, 10 complete control)
# [18] = Preemergence, Rate 125 g/ha, scale 0 to 10 (0 no effect, 10 complete control)
# [19] = Preemergence, Rate 250 g/ha, scale of 0 to 10 where 0 is no effect and 10 is complete control
# [20] = Preemergence, Rate 500 g/ha, scale 0 (no effect) to 10 (complete control)
# [21] = Rate 500 g/ha, Postemergence, scale 0 to 10, 0 no effect, 10 complete control
# [22] = Rate 125 g/ha, 0 no injury, 100 complete control
# [23] = Rate 500 g/ha, 0 to 100 scale where 0 is no effect and 100 is complete control
# [24] = Rate 1000 g/ha, 0 to 100 scale where 0 is no effect and 100 is complete control
smiles,measurement,setting,value
CC(C)N(C(=O)n1oc(=O)n(Cc2ccccc2)c1=O)c1ccccc1 [Compound 94],Corn plant response rating,[1]; [14],0
same,Corn plant response rating,[1]; [15],0
same,Corn plant response rating,[1]; [16],0
same,Corn plant response rating,[1]; [17],0
same,"Plant response rating, Corn",[1]; [18],2
same,"Plant response rating, Corn",[1]; [19],3
same,Corn plant response rating,[1]; [20],6
same,Corn plant response rating,[1]; [21],0
same,Rape plant response rating,[2]; [14],1
same,Rape plant response rating,[2]; [15],2
same,Rape plant response rating,[2]; [16],2
same,Rape plant response rating,[2]; [17],0
same,"Plant response rating, Rape",[2]; [18],0
same,"Plant response rating, Rape",[2]; [19],2
same,Rape plant response rating,[2]; [20],5
same,Rape plant response rating,[2]; [21],3
same,Sugarbeets plant response rating,[3]; [14],2
same,Sugarbeets plant response rating,[3]; [15],2
same,Sugarbeets plant response rating,[3]; [17],0
same,Sugarbeets plant response rating (0 to 10 scale),"[3]; Preemergence, Rate 125 g/ha, 0 is no effect, 10 is complete control",0
same,"Plant response rating, Sugarbeets","[3]; Preemergence, scale of 0 to 10 where 0 is no effect and 10 is complete control",0
same,Sugarbeets plant response rating,[3]; [20],2
same,"Plant response rating, Sugarbeets","[3]; Postemergence, scale 0 to 10, 0 is no effect, 10 is complete control",2
same,Sugarbeets plant response rating,[3]; [21],3
same,Ducksalad plant response rating,"[4]; Postemergence (flood test species), Rate 125 g/ha, scale of 0 to 10 where 0 is no effect and 10 is complete control",0
same,Ducksalad plant response rating,[4]; [14],0
same,Ducksalad plant response rating,"[4]; Rate 250 g/ha, headed Pre-emergence (flood test species), scale 0 to 10 (0 no effect, 10 complete control)",0
same,"Plant response rating, Ducksalad","[4]; Rate 500 g/ha, headed Pre-emergence (flood test species), scale 0 to 10 (0 no effect, 10 complete control)",0
same,Ducksalad plant response rating,"[4]; Rate 500 g/ha, listed under Postemergence (flood test species), scale 0 to 10, 0 no effect, 10 complete control",2
same,Ducksalad plant response rating,"[4]; Rate 1000 g/ha, Pre-emergence (as headed), scale 0 to 10",0
same,Ducksalad plant response rating,"[4]; Rate 2000 g/ha, Pre-emergence (as headed), scale 0 to 10",0
same,Ducksalad plant response rating,"[4]; flood test, listed under Postemergence, Rate 250 g/ha, scale 0 to 10, 0 no effect, 10 complete control",0
same,"Plant response rating, P. morninglory",[5]; [22],0
same,"Plant response rating, P. morninglory",[5]; Rate 500 g/ha,0
same,Tall Mallow plant response rating,[6]; [22],0
same,"Plant response rating, Tall Mallow",[6]; Rate 500 g/ha,20
same,"Plant response rating, Wheat (winter)","[7]; Rate 250 g/ha, 0 to 100 scale (0 no effect, 100 complete control)",0
same,"Plant response rating, Wheat (winter)","[7]; Rate 1000 g/ha, 0 to 100 scale, 0 is no effect and 100 is complete control",0
same,"Plant response rating, Wheat (winter)","[7]; Rate 500 g/ha, 0 to 100 scale, 0 no effect, 100 complete control",0
same,"Plant response rating, Blackgrass","[8]; Rate 250 g/ha, 0 to 100 scale",60
same,"Plant response rating, Blackgrass",[8]; [23],60
same,"Plant response rating, Blackgrass",[8]; [24],60
same,"Plant response rating, Green foxtail","[9]; Rate 250 g/ha, 0 to 100 scale",80
same,"Plant response rating, Green foxtail",[9]; [23],90
same,"Plant response rating, Green foxtail",[9]; [24],100
same,"Plant response rating, I. Ryegrass","[10]; Rate 250 g/ha, 0 to 100 scale",40
same,"Plant response rating, I. Ryegrass",[10]; [23],60
same,"Plant response rating, I. Ryegrass",[10]; [24],60
same,"Plant response rating, Wheat (winter)","[11]; Rate 250 g/ha, 0 to 100 scale",30
same,"Plant response rating, Wheat (winter)",[11]; [23],30
same,"Plant response rating, Wheat (winter)",[11]; [24],40
same,"Plant response rating, Wild oat",[12]; Rate 500 g/ha,40
same,"Plant response rating, Wild oat",[12]; Rate 1000 g/ha,50
same,"Plant response rating, Barley (winter)","[13]; Rate 250 g/ha, 0 to 100 scale",40
same,"Plant response rating, Barley (winter)",[13]; [23],50
same,"Plant response rating, Barley (winter)",[13]; [24],50
